Three molecules from patent publication US6133266A, “3,4-disubstituted phenylethanolaminotetralincarboxamide derivatives” (Kissei Pharmaceutical Co., Ltd., priority 1996, dated 2000) can be followed below.

Molecules are shown by their SMILES. Counter-ions that a name gives are not always drawn.

For one data set, the target named is T1, β2 -adrenergic receptor (Rattus norvegicus, UniProt P10608).
T1 construct: longitudinal uterine muscle strips (about 15 mm in length and about 5 mm in width); from tissue; host or cells: longitudinal uterine muscle strips of pregnant SD rat (day 21)
T1 sequence (P10608 whole entry): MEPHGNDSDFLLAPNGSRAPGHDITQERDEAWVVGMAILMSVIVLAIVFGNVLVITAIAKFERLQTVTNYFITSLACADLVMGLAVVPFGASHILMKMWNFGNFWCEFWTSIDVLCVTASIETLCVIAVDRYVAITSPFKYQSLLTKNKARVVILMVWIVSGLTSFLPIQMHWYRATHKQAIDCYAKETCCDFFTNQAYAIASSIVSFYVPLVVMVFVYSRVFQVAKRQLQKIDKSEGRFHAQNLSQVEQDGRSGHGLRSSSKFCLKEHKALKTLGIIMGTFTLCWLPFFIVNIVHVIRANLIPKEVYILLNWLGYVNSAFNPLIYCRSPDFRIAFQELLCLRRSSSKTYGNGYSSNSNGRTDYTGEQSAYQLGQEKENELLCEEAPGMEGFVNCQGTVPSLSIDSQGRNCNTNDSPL
Description: Action of drugs on the spontaneous contractions of isolated myometria (isolated rat pregnant uterus). In kind it is cell-based. Particulars: isolated pregnant SD rat uterus (pregnancy day 21), Magnus method, 37° C.; read-out: EC50, activity to relax 50% of the spontaneous contractions of rat myometrium. The protocol: Thus, the compounds of the present invention have markedly potent β2 -adrenergic receptor stimulating effect and therefore are remarkably useful as β2 -adrenergic receptor stimulating agents.
Action of drugs on the spontaneous contractions of isolated myometria
The uterus of a pregnant SD rat (pregnancy day of 21) was isolated and longitudinal uterine muscle strips (about 15 mm in length and about 5 mm in width) free from the basal plate were prepared. The experiment was conducted according to the Magnus method. The preparations were mounted with a tension of 1 g in Locke-Ringer solution maintained at 37° C. and gassed with a mixture of 95% of oxygen and 5% of carbon dioxide. Spontaneous contractions of the myometrium were induced isometrically via a pressure transducer and recorded on a rectigram. The efficacy was evaluated by comparing the total degree of uterine contraction during 5 minutes before the addition of the drug with the total degree of uterine contraction during 5 minutes after the addition of the drug and calculating the 50% inhibitory concentration as EC50.

The next data set deals with β1 -adrenergic receptor. Description: Action of drugs on the atrial contractions of isolated atria (isolated rat atrium). In kind it is cell-based. Particulars: isolated atria of SD male rats, Magnus method, 37° C. The protocol:
Thus, the compounds of the present invention have markedly weak β1 -adrenergic receptor stimulating effect in comparison with the aforementioned β2 -adrenergic receptor stimulating effect.
Action of drugs on the atrial contractions of isolated atria The atria of SD male rats (350 to 400 g in body weight) were isolated and the experiment was conducted according to the Magnus method. The preparations were mounted with a tension of 1 g in Krebs-Henseleit solution maintained at 37° C. and gassed with a mixture of 95% of oxygen and 5% of carbon dioxide. The atrial contraction was induced isometrically via a pressure transducer and recorded on a rectigram. After addition of the drug, its efficacy was evaluated by calculating EC20 value which is the drug concentration which increases 20 beats per minute of heart rate.

Another data set concerns male ICR mice. The data set can be described thus: Acute toxicity. Particulars: 5 male ICR mice, intravenously in saline, 20 mg/kg, during 24 hours after the administration. In kind it is in vivo. The protocol: To 5 male ICR mice of 4 weeks age was administered intravenously 2-[(2S)-2-[[(2R)-2-hydroxy-2-(4-hydroxy-3hydroxymethylphenyl)ethyl]amino]- 1,2,3,4-tetrahydronaphthalen-7-yloxy]-N,N-dimethylacetamide 0.5 sulfate in saline at dose of 20 mg/kg.

Usually EC50 stands for the concentration needed to bring the measured effect to its halfway point. As for `CN(C)C(=O)COc1ccc2c(c1)C[C@@H](NCC(O)c1ccc(O)c(CO)c1)CC2` (mixture of isomers) [Compound 1, 2-[(2S)-2-[[(2RS)-2-Hydroxy-2-(4-hydroxy-3-hydroxymethylphenyl)ethyl]amino]-1,2,3,4-tetrahydronaphthalen-7yloxy]-N,N-dimethylacetamide], at β2 -adrenergic receptor, the EC50 was 5.3 nM. Besides, the “EC20 value, activity to increase 20 beats per minute of rat heart rate” value in the data set on β1 -adrenergic receptor was 2.5×10^-6 mol concentration.
As to `CN(C)C(=O)COc1ccc2c(c1)C[C@@H](NC[C@H](O)c1ccc(O)c(CO)c1)CC2` [Compound 19, (-)-2-[(2S)-2-[[(2R)-2-Hydroxy-2-(4-hydroxy-3-hydroxymethylphenyl)ethyl]amino]-1,2,3,4-tetrahydronaphthalen-7-yloxy]-N,N-dimethylacetamide 0.5 sulfate], the death of animals result in the data set with male ICR mice is on record as “No death of animals was observed”.
With `CN(C)C(=O)COc1ccc2c(c1)C[C@@H](NC[C@H](O)c1ccc(O)c(CO)c1)CC2` [Compound 6, (-)-2-[(2S)-2-[[(2R)-2-Hydroxy-2-(4-hydroxy-3-hydroxymethylphenyl)ethyl]amino]-1,2,3,4-tetrahydronaphthalen-7-yloxy]-N,N-dimethylacetamide], on β2 -adrenergic receptor, the EC50 is 2.6 nM. In addition, the “EC20 value, activity to increase 20 beats per minute of rat heart rate” value in the data set on β1 -adrenergic receptor is reported as 9.4×10^-7 mol concentration.
